# Key:
# Assay type in all cases: physicochemical
# Flash Point, ASTM D-92 = test: Flash Point, ASTM D-92
# Pour Point, ASTM D-97 = test: Pour Point, ASTM D-97
# [1] = Kinematic viscosity, ASTM D-445
substance,measurement,setting,value
trimethylolpropane trioleate [EMERY® 2964],"Flash Point, ° C.","Flash Point, ASTM D-92",312 °C
same,"Pour Point, ° C.","Pour Point, ASTM D-97",−40 °C
same,"Viscosity, cSt 40° C.",[1]; 40° C.,48.43 cSt
same,"Viscosity, cSt 100° C.",[1]; 100° C.,10.17 cSt

# From patent US6656888B1, “Biodegradable two-cycle engine oil compositions, grease compositions, and ester base stocks use therein” (Cognis Corporation, priority 1992, dated 2003)
